Assay results from patent US12139520B2 (priority 2020, dated 2024).
Bridge positions count the residues as written; N and C are the ends. Square brackets hold non-standard residues; d marks the D form. Peptide text beside a SMILES is read from it. Hyp = O=C(O)[C@@H]1C[C@@H](O)CN1; Cit = NC(=O)NCCC[C@H](N)C(=O)O

Experiments:
hAMY3 receptor = target: T1, hAMY3 receptor (Homo sapiens, UniProt O60896+P30988); assay: cAMP assay for in vitro receptor activation, hAMY3-R; assay type: cell-based; conditions: cAMP assay, hAMY3 receptor; read-out: hAMY3R EC50
T1 sequence (P30988 25-474): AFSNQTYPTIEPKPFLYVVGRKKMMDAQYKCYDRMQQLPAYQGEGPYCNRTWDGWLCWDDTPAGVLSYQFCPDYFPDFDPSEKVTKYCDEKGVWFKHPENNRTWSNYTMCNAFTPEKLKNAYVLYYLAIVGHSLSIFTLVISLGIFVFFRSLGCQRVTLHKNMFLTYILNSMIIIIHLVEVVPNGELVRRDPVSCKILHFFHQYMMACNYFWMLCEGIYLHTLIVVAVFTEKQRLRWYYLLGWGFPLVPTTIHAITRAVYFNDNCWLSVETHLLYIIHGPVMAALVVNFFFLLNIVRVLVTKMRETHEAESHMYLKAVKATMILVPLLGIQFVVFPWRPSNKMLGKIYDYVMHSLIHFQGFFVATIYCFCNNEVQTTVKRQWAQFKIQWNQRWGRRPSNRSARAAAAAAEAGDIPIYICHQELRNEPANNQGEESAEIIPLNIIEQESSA
T1 sequence (O60896 24-148 partner): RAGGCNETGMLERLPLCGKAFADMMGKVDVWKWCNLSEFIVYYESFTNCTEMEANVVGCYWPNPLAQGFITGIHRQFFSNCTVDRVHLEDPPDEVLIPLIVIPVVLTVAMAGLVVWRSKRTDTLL
Method in brief: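 Accumulated cAMP was detected by time-resolved FRET one hour after reagent addition. Beforehand, hAMY3-R-overexpressing monoclonal cells (2000/well, DPBS, 0.05% casein, 0.5 mM IBMX) received graded doses of compound for 30 min at room temperature; human amylin served as positive control.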

[1] = Physical stability of peptide analogues (Thioflavin T fibrillation); assay type: physicochemical; conditions: maximum ThT signal normalized between hAMY maximum and buffer background; 40° C., shaking, four days; pH 7 per table title
Method in brief: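 ThT fluorescence (450 nm excitation, 480 nm emission; 4 μM dye) was read every 10 min over four days at 40° C under 700 rpm shaking stress, after 1 h in pH 4 acetate or pH 7 phosphate (50 mM). Peak smoothed signal expressed as percent, scaled between buffer background and hAMY maximum.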

Row | Compound | EC50 (hAMY3 receptor) [nM] | Max ThT signal (%) [1] [%]
1 | CC[C@H](C)[C@H](NC(=O)[C@H](CCC(N)=O)NC(=O)[C@H](Cc1c[nH]cn1)NC(=O)[C@H](C)NC(=O)[C@H](CC(C)C)NC(=O)[C@H](CCCNC(=N)N)NC(=O)[C@H](CCC(N)=O)NC(=O)[C@@H](NC(=O)[C@@H](NC(=O)[C@@H]1CSSC[C@H](NC(=O)CN)C(=O)N[C@@H](CCCNC(=N)N)C(=O)N[C@@H](Cc2ccccc2)C(=O)NCC(=O)N[C@@H]([C@@H](C)O)C(=O)N1)[C@@H](C)O)C(C)C)C(=O)N[C@@H](Cc1ccc(O)cc1)C(=O)N[C@@H](CCC(N)=O)C(=O)N[C@@H](Cc1ccccc1)C(=O)N[C@H](C(=O)N[C@@H](CC(=O)O)C(=O)N[C@@H](CCCCN)C(=O)N[C@@H](CC(=O)O)C(=O)N[C@@H](CCCCN)C(=O)N[C@@H](CC(=O)O)C(=O)N[C@@H](CC(N)=O)C(=O)N[C@H](C(=O)N[C@@H](C)C(=O)N1CCC[C@H]1C(=O)N[C@@H](CCCNC(=N)N)C(=O)N[C@@H](CO)C(=O)N[C@@H](CC(N)=O)C(=O)N[C@H](C(=O)N[C@@H](CO)C(=O)N1CCC[C@H]1C(=O)N[C@@H](CCC(N)=O)C(=O)NCC(=O)N1C[C@H](O)C[C@H]1C(N)=O)C(C)C)C(C)C)[C@@H](C)O [compound 145] (H-GCRFGTCTVQRLAHQIYQFTDKDKDNVAPRSNVSPQG[Hyp]-NH2; disulfide 2-7; N-terminus assumed) | 0.039 | 2.000
2 | CC[C@H](C)[C@H](NC(=O)[C@H](CCC(N)=O)NC(=O)[C@H](Cc1c[nH]cn1)NC(=O)[C@H](C)NC(=O)[C@H](CC(C)C)NC(=O)[C@H](CCCNC(=N)N)NC(=O)[C@H](CCC(N)=O)NC(=O)[C@@H](NC(=O)[C@@H](NC(=O)[C@@H]1CSSC[C@H](NC(=O)CN)C(=O)N[C@@H](CCCNC(=N)N)C(=O)N[C@@H](Cc2ccccc2)C(=O)NCC(=O)N[C@@H]([C@@H](C)O)C(=O)N1)[C@@H](C)O)C(C)C)C(=O)N[C@@H](Cc1ccc(O)cc1)C(=O)N[C@@H](CCC(N)=O)C(=O)N[C@@H](Cc1ccccc1)C(=O)N[C@H](C(=O)N[C@@H](CC(=O)O)C(=O)N[C@@H](CCCCN)C(=O)N[C@@H](CC(=O)O)C(=O)N[C@@H](CCCCN)C(=O)N[C@@H](CC(=O)O)C(=O)N[C@@H](CC(N)=O)C(=O)N[C@H](C(=O)N[C@@H](C)C(=O)N1CCC[C@H]1C(=O)N[C@@H](CCCNC(=N)N)C(=O)N[C@@H](CO)C(=O)N[C@@H](CC(N)=O)C(=O)N[C@H](C(=O)N[C@@H](CO)C(=O)N1CCC[C@H]1C(=O)N[C@@H](CCC(N)=O)C(=O)NCC(=O)N1C[C@H](O)C[C@H]1C(N)=O)[C@@H](C)CC)C(C)C)[C@@H](C)O [compound 158] (H-GCRFGTCTVQRLAHQIYQFTDKDKDNVAPRSNISPQG[Hyp]-NH2; disulfide 2-7; N-terminus assumed) | 0.048 | 6.300
3 | CC[C@H](C)[C@H](NC(=O)[C@H](CCC(N)=O)NC(=O)[C@H](Cc1c[nH]cn1)NC(=O)[C@H](C)NC(=O)[C@H](CC(C)C)NC(=O)[C@H](CCCNC(=N)N)NC(=O)[C@H](CCC(N)=O)NC(=O)[C@@H](NC(=O)[C@@H](NC(=O)[C@@H]1CSSC[C@H](NC(=O)[C@@H](N)CCCCN)C(=O)N[C@@H](CCCNC(=N)N)C(=O)N[C@@H](CCSC)C(=O)NCC(=O)N[C@@H]([C@@H](C)O)C(=O)N1)[C@@H](C)O)C(C)C)C(=O)N[C@@H](Cc1ccc(O)cc1)C(=O)N[C@@H](CCC(N)=O)C(=O)N[C@@H](Cc1ccccc1)C(=O)N[C@H](C(=O)N[C@@H](CC(=O)O)C(=O)N[C@@H](CCCCN)C(=O)N[C@@H](CC(=O)O)C(=O)N[C@@H](CCCCN)C(=O)N[C@@H](CC(=O)O)C(=O)N[C@@H](CC(N)=O)C(=O)N[C@H](C(=O)N[C@@H](C)C(=O)N1CCC[C@H]1C(=O)N[C@@H](CCCNC(=N)N)C(=O)N[C@@H](CO)C(=O)N[C@@H](CCCCN)C(=O)N[C@H](C(=O)N[C@@H](CO)C(=O)N1CCC[C@H]1C(=O)N[C@@H](CCC(N)=O)C(=O)N[C@H](C(=O)N1C[C@H](O)C[C@H]1C(N)=O)[C@@H](C)O)[C@@H](C)CC)C(C)C)[C@@H](C)O [compound 194] (H-KCRMGTCTVQRLAHQIYQFTDKDKDNVAPRSKISPQT[Hyp]-NH2; disulfide 2-7; N-terminus assumed) | 0.112 | 6.000

Now those with a lower EC50 (hAMY3 receptor), led by results:

Row | EC50 (hAMY3 receptor) [nM] | Max ThT signal (%) [1] [%] | Compound
4 | 0.017 | 12.600 | CC[C@H](C)[C@H](NC(=O)[C@H](CCC(N)=O)NC(=O)[C@H](Cc1c[nH]cn1)NC(=O)[C@H](C)NC(=O)[C@H](CC(C)C)NC(=O)[C@H](CCCNC(=N)N)NC(=O)[C@H](CCC(N)=O)NC(=O)[C@@H](NC(=O)[C@@H](NC(=O)[C@@H]1CSSC[C@H](NC(=O)CN)C(=O)N[C@@H](CCCNC(=N)N)C(=O)N[C@@H](Cc2ccccc2)C(=O)NCC(=O)N[C@@H]([C@@H](C)O)C(=O)N1)[C@@H](C)O)C(C)C)C(=O)N[C@@H](Cc1ccc(O)cc1)C(=O)N[C@@H](CCC(N)=O)C(=O)N[C@@H](Cc1ccccc1)C(=O)N[C@H](C(=O)N[C@@H](CC(=O)O)C(=O)N[C@@H](CCCCN)C(=O)N[C@@H](CC(=O)O)C(=O)N[C@@H](CCCCN)C(=O)N[C@@H](CC(=O)O)C(=O)N[C@@H](CC(N)=O)C(=O)N[C@H](C(=O)N[C@@H](C)C(=O)N1CCC[C@H]1C(=O)N[C@@H](CCCNC(=N)N)C(=O)N[C@H](C(=O)N[C@@H](CC(N)=O)C(=O)N[C@H](C(=O)N[C@@H](CO)C(=O)N1CCC[C@H]1C(=O)N[C@@H](CC(N)=O)C(=O)NCC(=O)N[C@@H](Cc1ccc(O)cc1)C(N)=O)C(C)C)[C@@H](C)O)C(C)C)[C@@H](C)O [compound 98] (H-GCRFGTCTVQRLAHQIYQFTDKDKDNVAPRTNVSPNGY-NH2; disulfide 2-7; N-terminus assumed)
5 | 0.028 | 21.300 | CC[C@H](C)[C@H](NC(=O)[C@H](CCCCN)NC(=O)[C@H](CO)NC(=O)[C@H](CCCNC(=N)N)NC(=O)[C@@H]1CCCN1C(=O)[C@H](C)NC(=O)[C@@H](NC(=O)[C@H](CC(N)=O)NC(=O)[C@H](CC(=O)O)NC(=O)[C@H](CCCCN)NC(=O)[C@H](CC(=O)O)NC(=O)[C@H](CCCCN)NC(=O)[C@H](CC(=O)O)NC(=O)[C@@H](NC(=O)[C@H](Cc1ccccc1)NC(=O)[C@H](CCC(N)=O)NC(=O)[C@H](Cc1ccc(O)cc1)NC(=O)[C@@H](NC(=O)[C@H](CCC(N)=O)NC(=O)[C@H](Cc1c[nH]cn1)NC(=O)[C@H](C)NC(=O)[C@H](CC(C)C)NC(=O)[C@H](CCCNC(N)=O)NC(=O)[C@H](CCC(N)=O)NC(=O)[C@@H](NC(=O)[C@@H](NC(=O)[C@@H]1CSSC[C@H](NC(=O)CN)C(=O)N[C@@H](CCCNC(=N)N)C(=O)N[C@@H](Cc2ccccc2)C(=O)NCC(=O)N[C@@H]([C@@H](C)O)C(=O)N1)[C@@H](C)O)C(C)C)[C@@H](C)CC)[C@@H](C)O)C(C)C)C(=O)NCC(=O)N1CCC[C@H]1C(=O)N[C@@H](CCC(N)=O)C(=O)NCC(=O)N1C[C@H](O)C[C@H]1C(N)=O [compound 284] (H-GCRFGTCTVQ[Cit]LAHQIYQFTDKDKDNVAPRSKIGPQG[Hyp]-NH2; disulfide 2-7)
6 | 0.006 | 21.150 | CC[C@H](C)[C@H](NC(=O)[C@H](CC(N)=O)NC(=O)[C@@H](NC(=O)[C@H](CCCNC(=N)N)NC(=O)[C@@H]1CCCN1C(=O)[C@H](C)NC(=O)[C@@H](NC(=O)[C@H](CC(N)=O)NC(=O)[C@H](CC(=O)O)NC(=O)[C@H](CCCCN)NC(=O)[C@H](CC(=O)O)NC(=O)[C@H](CCCCN)NC(=O)[C@H](CC(=O)O)NC(=O)[C@@H](NC(=O)[C@H](Cc1ccccc1)NC(=O)[C@H](CCC(N)=O)NC(=O)[C@H](Cc1ccc(O)cc1)NC(=O)[C@@H](NC(=O)[C@H](CCC(N)=O)NC(=O)[C@H](Cc1c[nH]cn1)NC(=O)[C@H](C)NC(=O)[C@H](CC(C)C)NC(=O)[C@H](Cc1c[nH]c2ccccc12)NC(=O)[C@H](CCC(N)=O)NC(=O)[C@@H](NC(=O)[C@@H](NC(=O)[C@@H]1CSSC[C@H](NC(=O)CN)C(=O)N[C@@H](CCCNC(=N)N)C(=O)N[C@@H](Cc2ccccc2)C(=O)NCC(=O)N[C@@H]([C@@H](C)O)C(=O)N1)[C@@H](C)O)C(C)C)[C@@H](C)CC)[C@@H](C)O)C(C)C)[C@@H](C)O)C(=O)NCC(=O)N1CCC[C@H]1C(=O)N[C@@H](CC(N)=O)C(=O)NCC(=O)N1C[C@H](O)C[C@H]1C(N)=O [compound 331] (H-GCRFGTCTVQWLAHQIYQFTDKDKDNVAPRTNIGPNG[Hyp]-NH2; disulfide 2-7; N-terminus assumed)
